Source: patent US6559180B2, “Nitroglycerin-menthol potentiation for treatment of angina” (priority 2001, dated 2003)
Several values for one entry are separate records, joined by “and”; a condition that tells them apart may be missing. Identical values can stand only once.

Tests used:
[1] = Second study: exercise stress tests in patients with reproducible exertional angina; type: in vivo
From the text: The second study pertained to five patients that experienced reproducible exertional angina. The study comprised administering exercise stress tests for each patient on three consecutive days. […]
For each patient, the stress test was stopped with the onset of angina. The objective evidence of ischemia was indicated by the degree of S-T segment depression and presence of segmental wall abnormalities documented by echocardiographic study performed immediately after the exercise stress test.
All tests monitored angina with exercise, exercise tolerance, and the degree of S-T segment depression on the ECG, when: 1) no medication was administered (Table 1); […]); and, 3) a solution containing isovolumic amounts of NTG and Menthol […]

[2] = First study: sublingual pump spray in angina patients intolerant to standard 400 mcg NTG spray (intolerance and anginal pain relief); type: in vivo; settings: single 200 mcg NTG spray dosage sublingually, Nitrolingual solution diluted fifty percent with placebo solution; 21 patients
Protocol: The first study identifies 21 patients experiencing intolerance to a standard “Nitrolingual”® NTG 400 mcg spray dosage delivered sublingually.
The “Nitrolingual”® solution described above was diluted fifty percent with a pharmacologically neutral solution placebo obtained from the same manufacturer, forming a combination solution. […] Each of the patients was then provided with a pump spray containing the combination solution which would limit each single spray dosage to 200 mcg NTG.
Next, isovolumic amounts of “Nitrolingual”® Pumpspray solution and 1% Menthol solution were mixed and the combination solution was provided to patients as a pump spray.

## O=[N+]([O-])OCC(CO[N+](=O)[O-])O[N+](=O)[O-] [NTG, Nitroglycerin]
[1]; 400 mg NTG administered prior to exercise, one line per patient (1-5)
  Heart Rate at Peak: 120 and 128 and 140 and 112 and 130
[1]; 400 mg NTG administered prior to exercise, test stopped at onset of angina, one line per patient (1-5)
  Duration of Exercise: 5 min and 6 min and 6.5 min and 4.5 min and 7.5 min
[1]; 400 mcg NTG by itself or 200 mcg NTG in combination with Menthol, before exercise
  side effects observed: No side effects were observed
[2]
  patients that did not experience intolerance: 90%
  patients that received satisfactory relief from anginal pain within two minutes: 19%
